Test results reported in ChEMBL document CHEMBL1201862, “PubChem BioAssay data set” (2004).
Activity calls are given as the source filed them.

What was measured:
[1] = target: Cyclin-dependent kinase 9 (Homo sapiens, UniProt P50750); assay type: functional;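 further: value from the CDK9 entry of a kinome-spanning kinase panel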
[2] = target: Cyclin-dependent kinase 7 (Homo sapiens, UniProt P50613); assay type: functional;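 further: value comes from a kinome-wide kinase profiling panel in which CDK7 is one member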
Sequence of Cyclin-dependent kinase 7 (P50613 whole entry): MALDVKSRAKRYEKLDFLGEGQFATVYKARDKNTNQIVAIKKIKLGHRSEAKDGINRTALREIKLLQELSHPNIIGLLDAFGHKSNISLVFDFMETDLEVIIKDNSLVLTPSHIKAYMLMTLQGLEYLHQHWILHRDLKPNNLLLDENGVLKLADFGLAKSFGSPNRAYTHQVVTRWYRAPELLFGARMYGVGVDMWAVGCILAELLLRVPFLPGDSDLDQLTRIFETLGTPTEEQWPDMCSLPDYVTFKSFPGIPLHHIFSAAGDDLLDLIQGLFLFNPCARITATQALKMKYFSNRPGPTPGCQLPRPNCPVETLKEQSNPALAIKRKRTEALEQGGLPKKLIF

[3] = target: Cyclin-dependent kinase 8 (Homo sapiens, UniProt P49336); experiment: Navigating the Kinome. Panel member name: CDK8; assay type: functional
[4] = target: Long-chain-fatty-acid--AMP ligase FadD28 (Mycobacterium tuberculosis, UniProt P9WQ59); experiment: Fluorescence polarization aasay to screen for inhibitors that compete for the binding of FadD28 to a bisubstrate Measured in Biochemical System Using Plate Reader - 2147-01_Inhibitor_Dose_CherryPick_Activity.; assay type: functional, Mycobacterium tuberculosis H37Rv
[5] = target: ADP-ribosylation factor GTPase-activating protein 1 (Rattus norvegicus, UniProt Q62848); experiment: Fluorescence polarization-based biochemical high throughput dose response screening assay to identify inhibitors of ADP-ribosylation factor GTPase activating protein 1 (ARFGAP1).; assay type: functional
[6] = target: T1, Mitochondrial peptide methionine sulfoxide reductase (Bos taurus, UniProt P54149); assay type: functional;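 on IC50: absorbance read-out, biochemical high-throughput dose-response screen for MsrA inhibitors, confirmatory; recombinant bovine MsrA coupled to E. coli TrxB with NADPH and selenocystamine; potency is for inhibitors of MsrA activity on DMSO substrate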
T1 sequence (P54149 whole entry): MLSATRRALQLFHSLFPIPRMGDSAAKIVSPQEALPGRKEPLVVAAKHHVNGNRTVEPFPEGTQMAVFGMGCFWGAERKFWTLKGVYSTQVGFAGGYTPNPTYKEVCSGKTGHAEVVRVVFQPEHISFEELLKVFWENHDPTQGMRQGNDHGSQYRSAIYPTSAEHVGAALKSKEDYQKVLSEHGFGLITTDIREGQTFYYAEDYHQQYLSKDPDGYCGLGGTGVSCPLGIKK

[7] = target: T2, Sentrin-specific protease 8 (Homo sapiens, UniProt Q96LD8); assay type: functional
T2 sequence (Q96LD8 whole entry): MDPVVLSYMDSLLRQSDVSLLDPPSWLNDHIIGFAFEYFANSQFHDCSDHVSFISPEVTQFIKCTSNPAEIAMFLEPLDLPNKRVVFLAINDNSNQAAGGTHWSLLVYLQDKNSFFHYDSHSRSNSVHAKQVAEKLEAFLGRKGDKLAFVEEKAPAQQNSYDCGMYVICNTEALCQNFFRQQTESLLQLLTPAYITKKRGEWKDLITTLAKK

[8] = target: Histone-lysine N-methyltransferase NSD2 (Homo sapiens, UniProt O96028); assay type: biochemical
[9] = target: T1, Mitochondrial peptide methionine sulfoxide reductase; experiment: Absorbance-based biochemical high throughput dose response assay for activators of Methionine sulfoxide reductase A (MsrA).; assay type: functional
[10] = target: T2, Sentrin-specific protease 8; assay type: functional; remark: listed apart in the source
[11] = target: T3, Small ubiquitin-related modifier 1 (Homo sapiens, UniProt P63165); experiment: inhibitors of SUMO1 peptide binding, dose response, biochemical, fluorescence polarization, uHTS hits (AID 624382); assay type: functional; conditions: read-out: IC50_Mean
T3 sequence (P63165 whole entry): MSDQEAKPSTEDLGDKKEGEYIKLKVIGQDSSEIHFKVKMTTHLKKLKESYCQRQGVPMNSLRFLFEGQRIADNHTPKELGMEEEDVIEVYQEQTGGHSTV

[12] = target: T3, Small ubiquitin-related modifier 1; experiment: inhibitors of SUMO1 partner interactions, dose response, biochemical, FRET (AID 624383); assay type: functional; conditions: read-out: IC50_Mean
[13] = target: T4, Carboxy-terminal domain RNA polymerase II polypeptide A small phosphatase 1 (Homo sapiens, UniProt Q9GZU7); experiment: inhibitors of CTDSP1, concentration-response testing, biochemical assay, absorbance-based, actives from ultra-high-throughput screening (AID 540297); assay type: functional
T4 sequence (Q9GZU7 whole entry): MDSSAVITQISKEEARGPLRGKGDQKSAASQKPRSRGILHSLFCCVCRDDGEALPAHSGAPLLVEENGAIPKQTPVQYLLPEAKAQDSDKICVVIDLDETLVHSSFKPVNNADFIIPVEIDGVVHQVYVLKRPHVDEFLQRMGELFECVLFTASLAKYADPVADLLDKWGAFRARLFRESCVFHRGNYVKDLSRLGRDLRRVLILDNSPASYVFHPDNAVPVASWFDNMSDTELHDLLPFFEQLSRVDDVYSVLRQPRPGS

[14] = target: ATP-dependent molecular chaperone HSP82 (Candida albicans (strain WO-1) (Yeast), UniProt C4YTQ8); experiment: loss of DOC-induced GRE-beta-galactosidase reporter signal, dose response, Hsp90 inhibitor project, S. cerevisiae, luminescence (AID 2400); assay type: functional, cell-based;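 further: beta-galactosidase luminescence from glucocorticoid response element reporter as proxy for Hsp90 function; inhibitor potency where signal loss means Hsp90 inhibition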
Sequence of ATP-dependent molecular chaperone HSP82 (C4YTQ8 whole entry): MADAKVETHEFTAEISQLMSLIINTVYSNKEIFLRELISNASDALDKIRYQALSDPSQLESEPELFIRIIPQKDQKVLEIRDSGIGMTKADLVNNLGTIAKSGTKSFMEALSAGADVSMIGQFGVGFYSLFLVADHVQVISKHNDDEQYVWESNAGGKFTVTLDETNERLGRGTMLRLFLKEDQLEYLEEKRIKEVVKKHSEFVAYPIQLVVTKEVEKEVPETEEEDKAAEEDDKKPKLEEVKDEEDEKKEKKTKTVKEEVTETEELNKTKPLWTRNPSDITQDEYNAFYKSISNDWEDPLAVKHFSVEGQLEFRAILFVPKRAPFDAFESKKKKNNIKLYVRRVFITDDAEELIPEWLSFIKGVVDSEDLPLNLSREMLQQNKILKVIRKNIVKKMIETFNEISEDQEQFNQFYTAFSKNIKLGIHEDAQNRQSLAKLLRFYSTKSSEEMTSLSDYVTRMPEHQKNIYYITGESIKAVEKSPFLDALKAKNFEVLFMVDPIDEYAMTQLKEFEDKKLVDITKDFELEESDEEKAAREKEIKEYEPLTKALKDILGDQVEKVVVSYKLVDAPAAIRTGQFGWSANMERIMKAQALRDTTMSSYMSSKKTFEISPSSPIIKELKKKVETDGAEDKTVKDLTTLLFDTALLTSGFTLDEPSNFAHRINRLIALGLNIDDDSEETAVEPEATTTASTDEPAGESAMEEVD

[15] = NIH-3T3 fibroblast cytotoxicity, dose response, cytotoxicity control, cell-based, fluorescence, Alamar Blue, secondary assay (AID 2327); assay type: functional;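 further: NIH-3T3 mouse fibroblasts cultured with fluconazole at 8 µg/mL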
[16] = Luminescence Cell-Based Dose Confirmation HTS to Identify Activators of 5'UTR Stem-Loop Driven Alpha-Synuclein mRNA Translation in H4 Neuroglioblastoma Cells. [Related pubchem assays: 1829 (Project Summary), 1814 (Primary HTS)]; assay type: functional
[17] = C. albicans growth with fluconazole, confirmation, fluorescence, retest (AID 2467); assay type: functional, cell-based
[18] = Luminescence Cell-Based Dose Response to Identify Activators of Luciferase Translation or Activity in H4-C Neuroglioblastoma Cells. [Related pubchem assays: 1829 (Project Summary), 1814 (Primary HTS)]; assay type: functional
[19] = Luminescence Cell-Based Dose Confirmation to Identify Activators of 5'UTR Stem-Loop Driven Alpha-Synuclein mRNA Translation in H4 Neuroglioblastoma Cells. [Related pubchem assays: 1829 (Project Summary), 1814 (Primary HTS)]; assay type: functional
H4 = experiment: Luminescence Cell-Based Dose Response HTS to Identify Activators of 5'UTR Stem-Loop Driven Prion Protein mRNA Translation in H4 Neuroglioblastoma Cells. [Related pubchem assays: 1829 (Project Summary), 1814 (Primary HTS)]; assay type: functional; conditions: Homo sapiens
[20] = target: Serine/threonine-protein phosphatase (Candida dubliniensis (strain CD36 / CBS 7987 / NCPF 3949 / NRRLY-17841) (Yeast), UniProt B9W6M3); experiment: calcineurin pathway inhibitors in yeast reporter, dose response, S. cerevisiae, CDRE-lacZ, luminescence, secondary (AID 2388); assay type: functional, cell-based;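 further: yeast reporter cells carrying a calcineurin-responsive lacZ construct stimulated with calcium chloride; luminescent beta-galactosidase reporter signal in whole cells rather than isolated phosphatase activity; potency for inhibition where a drop in reporter signal means calcineurin blockade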
[21] = Luminescence Cell-Based Dose Response to Identify Activators of 5'UTR Stem-Loop Driven Prion Protein mRNA Translation in H4-C Neuroglioblastoma Cells. [Related pubchem assays: 1829 (Project Summary), 1814 (Primary HTS)]; assay type: functional
[22] = Luminescence Cell-Based Dose Response HTS to Identify Activators of Luciferase Translation or Activity in H4 […] Cells. [Related pubchem assays: 1829 (Project Summary), 1814 (Primary HTS)]; assay type: functional
[23] = target: Arf-GAP with SH3 domain, ANK repeat and PH domain-containing protein 1 (Homo sapiens, UniProt Q9ULH1); assay type: functional;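 further: biochemical fluorescence polarization dose–response screen measuring inhibition of ASAP1; ASAP1 GAP domain stimulating GTP hydrolysis by truncated human ARF1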
Sequence of Arf-GAP with SH3 domain, ANK repeat and PH domain-containing protein 1 (Q9ULH1 whole entry, the tested form may be a part): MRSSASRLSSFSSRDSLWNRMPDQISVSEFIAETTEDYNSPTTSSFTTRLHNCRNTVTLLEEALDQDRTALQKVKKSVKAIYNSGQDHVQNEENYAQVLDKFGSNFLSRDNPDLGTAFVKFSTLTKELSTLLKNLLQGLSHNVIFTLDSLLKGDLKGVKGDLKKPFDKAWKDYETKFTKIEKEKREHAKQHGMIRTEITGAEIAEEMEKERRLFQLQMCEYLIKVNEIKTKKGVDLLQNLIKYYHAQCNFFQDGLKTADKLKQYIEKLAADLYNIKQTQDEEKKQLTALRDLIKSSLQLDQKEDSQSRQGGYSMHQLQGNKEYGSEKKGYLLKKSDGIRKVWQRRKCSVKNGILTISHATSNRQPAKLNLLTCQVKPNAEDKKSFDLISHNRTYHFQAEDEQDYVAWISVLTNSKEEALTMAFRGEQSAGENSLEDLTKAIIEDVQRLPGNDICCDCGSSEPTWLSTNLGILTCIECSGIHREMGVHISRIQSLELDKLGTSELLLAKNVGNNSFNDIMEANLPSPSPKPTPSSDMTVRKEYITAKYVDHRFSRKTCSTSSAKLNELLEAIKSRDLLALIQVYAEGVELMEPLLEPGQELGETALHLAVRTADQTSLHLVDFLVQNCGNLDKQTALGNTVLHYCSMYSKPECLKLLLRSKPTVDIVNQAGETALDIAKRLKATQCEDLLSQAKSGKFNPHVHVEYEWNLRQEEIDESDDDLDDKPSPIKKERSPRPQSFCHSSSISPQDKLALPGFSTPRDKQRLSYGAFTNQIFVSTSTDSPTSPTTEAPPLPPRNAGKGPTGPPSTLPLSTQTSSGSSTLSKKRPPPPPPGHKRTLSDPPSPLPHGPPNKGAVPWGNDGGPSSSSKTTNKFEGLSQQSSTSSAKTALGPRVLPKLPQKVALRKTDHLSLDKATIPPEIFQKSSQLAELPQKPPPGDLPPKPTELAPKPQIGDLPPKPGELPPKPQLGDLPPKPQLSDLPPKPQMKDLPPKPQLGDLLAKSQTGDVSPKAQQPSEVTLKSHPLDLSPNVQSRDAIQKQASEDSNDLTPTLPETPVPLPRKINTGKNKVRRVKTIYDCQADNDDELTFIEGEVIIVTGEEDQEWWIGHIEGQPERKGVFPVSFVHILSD

Interleukin-8 = Interleukin-8 (Homo sapiens, UniProt P10145); experiment: Dose Response confirmation of uHTS small molecule hits for cystic fibrosis induced NFkb Inhibitors in a PAF-induced IL8 counterscreen.; assay type: functional; conditions: read-out: IC50_Mean
Sequence of Interleukin-8 (P10145 whole entry): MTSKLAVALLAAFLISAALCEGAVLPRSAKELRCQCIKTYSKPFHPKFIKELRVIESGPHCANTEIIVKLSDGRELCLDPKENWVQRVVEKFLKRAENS

Beta-lactamase [24] = target: Beta-lactamase (Salmonella choleraesuis (strain SC-B67), UniProt Q5J463); experiment: Epi-absorbance-based counterscreen for selective VIM-2 inhibitors: dose response biochemical high throughput screening assay to identify inhibitors of TEM-1 serine-beta-lactamase.
[25] = target: T5, Probable nicotinate-nucleotide adenylyltransferase (Staphylococcus aureus (strain N315), UniProt P65502); assay type: functional, Staphylococcus aureus subsp. aureus N315;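 on IC50 Mean: confirmatory dose-response retesting of NadD inhibitor hits first found in an ultra-high-throughput screen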
T5 sequence (P65502 whole entry): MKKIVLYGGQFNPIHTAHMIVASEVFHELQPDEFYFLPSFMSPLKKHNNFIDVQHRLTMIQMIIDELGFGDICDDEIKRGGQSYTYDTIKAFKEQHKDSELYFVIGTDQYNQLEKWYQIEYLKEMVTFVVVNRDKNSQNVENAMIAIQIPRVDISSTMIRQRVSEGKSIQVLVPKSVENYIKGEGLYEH

Beta Lactamase [26] = target: T6, Beta Lactamase (Pseudomonas aeruginosa, UniProt Q932Y6); experiment: VIM-2 inhibitor FRET-based artefact check, dose response, artefact control for selective VIM-2 inhibitor project, biochemical, FRET readout, CCF2 substrate (AID 1926)
T6 sequence (Q932Y6 whole entry): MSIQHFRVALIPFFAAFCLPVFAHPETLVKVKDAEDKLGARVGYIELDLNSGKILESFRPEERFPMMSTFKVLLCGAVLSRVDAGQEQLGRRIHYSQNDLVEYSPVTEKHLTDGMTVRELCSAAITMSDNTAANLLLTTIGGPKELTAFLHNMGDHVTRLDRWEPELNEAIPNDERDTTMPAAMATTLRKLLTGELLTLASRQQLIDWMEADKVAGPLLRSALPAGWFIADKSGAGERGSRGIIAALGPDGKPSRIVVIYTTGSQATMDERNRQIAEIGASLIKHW

Beta-lactamase [27] = target: T7, Beta-lactamase (Pseudomonas aeruginosa, UniProt Q79MP6); experiment: IMP-1 metallo-beta-lactamase inhibitors, dose response, selectivity assay for VIM-2 inhibitor project, biochemical, epi-absorbance (AID 1920)
T7 sequence (Q79MP6 whole entry): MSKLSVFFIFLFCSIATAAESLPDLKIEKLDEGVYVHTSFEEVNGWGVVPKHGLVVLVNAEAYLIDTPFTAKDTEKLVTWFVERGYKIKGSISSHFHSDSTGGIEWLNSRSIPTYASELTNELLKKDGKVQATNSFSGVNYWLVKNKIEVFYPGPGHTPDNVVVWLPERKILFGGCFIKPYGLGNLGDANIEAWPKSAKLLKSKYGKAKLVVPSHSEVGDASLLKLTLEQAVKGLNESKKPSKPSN

[28] = target: T5, Probable nicotinate-nucleotide adenylyltransferase; assay type: functional, Staphylococcus aureus subsp. aureus N315; conditions: read-out: IC50_Mean
Beta-lactamase [29] = target: T7, Beta-lactamase; experiment: […] counterscreen for selective VIM-2 inhibitors: dose response biochemical high throughput screening assay to identify inhibitors of IMP-1 metallo-beta-lactamase.
Leucine aminopeptidase = target: T8, Leucine aminopeptidase (Plasmodium falciparum 3D7, UniProt Q8IL11); experiment: P. falciparum M17LAP inhibitors, primary screen, biochemical, fluorogenic H-Leu-NHMec substrate, 1536-well (AID 1619); assay type: functional
T8 sequence (Q8IL11 whole entry): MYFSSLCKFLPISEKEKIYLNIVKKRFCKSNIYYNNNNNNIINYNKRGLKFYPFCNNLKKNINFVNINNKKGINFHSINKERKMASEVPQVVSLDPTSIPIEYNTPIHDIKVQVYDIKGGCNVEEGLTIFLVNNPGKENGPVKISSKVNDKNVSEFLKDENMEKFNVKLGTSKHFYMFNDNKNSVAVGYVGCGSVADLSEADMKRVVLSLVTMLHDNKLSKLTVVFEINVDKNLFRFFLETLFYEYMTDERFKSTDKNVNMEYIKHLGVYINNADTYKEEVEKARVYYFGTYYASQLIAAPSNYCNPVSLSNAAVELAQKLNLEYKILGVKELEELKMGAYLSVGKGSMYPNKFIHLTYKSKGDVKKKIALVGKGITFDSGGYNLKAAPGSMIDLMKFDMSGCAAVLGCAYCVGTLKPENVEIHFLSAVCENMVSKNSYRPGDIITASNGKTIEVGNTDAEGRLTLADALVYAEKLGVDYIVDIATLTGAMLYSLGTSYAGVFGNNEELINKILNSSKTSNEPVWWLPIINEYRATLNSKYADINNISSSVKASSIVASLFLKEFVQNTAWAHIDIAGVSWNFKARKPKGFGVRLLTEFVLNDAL

Beta Lactamase [30] = target: T6, Beta Lactamase; experiment: VIM-2 metallo-beta-lactamase inhibitor potency, dose response, biochemical, epi-absorbance readout, selective inhibitors (AID 1919)
[31] = StAR promoter reporter inhibition counter-screen, dose response, counter-screen for LRH-1 inverse agonist project, cell-based, luminescence, luciferase reporter (AID 651969); assay type: functional
[32] = target: Nuclear receptor subfamily 5 group A member 2 (Homo sapiens, UniProt O00482); assay type: functional, cell-based;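 further: HEK293T cells transfected with LRH-1 and a StAR promoter luciferase reporter; potency for inhibitors that lower LRH-1 driven reporter light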
Steroidogenic factor 1 = Steroidogenic factor 1 (Homo sapiens, UniProt Q13285); experiment: Counterscreen for inverse agonists of the liver receptor homolog-1 (LRH-1; NR5A2): Luminescence-based cell-based high throughput dose response assay to identify inverse agonists of the Steroidogenic Factor 1 Nuclear Receptor (SF1; NR5A1).; assay type: functional
[33] = target: Mitogen-activated protein kinase 13 (Homo sapiens, UniProt O15264); assay type: functional
[34] = nonselective inhibitors of cellular cAMP signaling, dose response, counter-screen for MC4R biased antagonist project, cell-based, TR-FRET cAMP detection (AID 602305); assay type: functional;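 further: U2OS cells stimulated with forskolin near its EC80 as the cAMP inducer; potency is for inhibition of forskolin-stimulated cAMP signaling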
Melanocortin receptor 4 = Melanocortin receptor 4 (Homo sapiens, UniProt P32245); experiment: MC4R antagonist potency on cAMP, dose response, cell-based, TR-FRET, biased antagonists (AID 602298); assay type: functional;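 further: antagonist potency against agonist-stimulated cAMP production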
Sequence of Melanocortin receptor 4 (P32245 whole entry): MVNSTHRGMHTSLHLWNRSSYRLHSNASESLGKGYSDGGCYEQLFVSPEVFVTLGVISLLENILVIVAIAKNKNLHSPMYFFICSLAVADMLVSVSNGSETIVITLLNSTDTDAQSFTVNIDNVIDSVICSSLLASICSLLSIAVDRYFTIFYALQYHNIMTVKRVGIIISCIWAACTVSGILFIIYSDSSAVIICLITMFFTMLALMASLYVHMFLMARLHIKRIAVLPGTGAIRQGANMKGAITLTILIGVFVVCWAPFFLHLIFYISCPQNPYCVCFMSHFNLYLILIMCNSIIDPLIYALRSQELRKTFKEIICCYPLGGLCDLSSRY

H9c2 = experiment: cells; assay type: functional, cell-based; conditions: Rattus norvegicus, H9c2, Myocardium;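 further: confirmatory concentration-response retest of ultra-high-throughput screening hits for modulation of myocardial damage; cell death induced by hydrogen peroxide oxidative stress; compound pretreatment for 60 min then peroxide exposure for 2 h; potency is for protecting the cells against peroxide damage rather than for killing them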
[35] = AlphaScreen signal interference compounds, dose response, artefact control for ARNT-TACC3 interaction inhibitor project, biochemical, luminescence, cherry-pick (AID 651705); assay type: functional;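 further: AlphaScreen bead proximity signal that flags compounds interfering with the detection technology; potency reflects signal decrease which marks the compound as an assay artifact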
[36] = target: T9, ATP-dependent translocase ABCB1 (Homo sapiens, UniProt P08183); experiment: ABCG2 efflux pump inhibitor potency, dose response, Ig-MXP3 cells, JC-1, flow cytometry, set 2 (AID 504566); assay type: functional; conditions: read-out: EC50_MICROM_;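 further: flow cytometry median green fluorescence of retained JC-1 dye; potency of efflux pump inhibition measured as rising substrate retention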
T9 sequence (P08183 whole entry): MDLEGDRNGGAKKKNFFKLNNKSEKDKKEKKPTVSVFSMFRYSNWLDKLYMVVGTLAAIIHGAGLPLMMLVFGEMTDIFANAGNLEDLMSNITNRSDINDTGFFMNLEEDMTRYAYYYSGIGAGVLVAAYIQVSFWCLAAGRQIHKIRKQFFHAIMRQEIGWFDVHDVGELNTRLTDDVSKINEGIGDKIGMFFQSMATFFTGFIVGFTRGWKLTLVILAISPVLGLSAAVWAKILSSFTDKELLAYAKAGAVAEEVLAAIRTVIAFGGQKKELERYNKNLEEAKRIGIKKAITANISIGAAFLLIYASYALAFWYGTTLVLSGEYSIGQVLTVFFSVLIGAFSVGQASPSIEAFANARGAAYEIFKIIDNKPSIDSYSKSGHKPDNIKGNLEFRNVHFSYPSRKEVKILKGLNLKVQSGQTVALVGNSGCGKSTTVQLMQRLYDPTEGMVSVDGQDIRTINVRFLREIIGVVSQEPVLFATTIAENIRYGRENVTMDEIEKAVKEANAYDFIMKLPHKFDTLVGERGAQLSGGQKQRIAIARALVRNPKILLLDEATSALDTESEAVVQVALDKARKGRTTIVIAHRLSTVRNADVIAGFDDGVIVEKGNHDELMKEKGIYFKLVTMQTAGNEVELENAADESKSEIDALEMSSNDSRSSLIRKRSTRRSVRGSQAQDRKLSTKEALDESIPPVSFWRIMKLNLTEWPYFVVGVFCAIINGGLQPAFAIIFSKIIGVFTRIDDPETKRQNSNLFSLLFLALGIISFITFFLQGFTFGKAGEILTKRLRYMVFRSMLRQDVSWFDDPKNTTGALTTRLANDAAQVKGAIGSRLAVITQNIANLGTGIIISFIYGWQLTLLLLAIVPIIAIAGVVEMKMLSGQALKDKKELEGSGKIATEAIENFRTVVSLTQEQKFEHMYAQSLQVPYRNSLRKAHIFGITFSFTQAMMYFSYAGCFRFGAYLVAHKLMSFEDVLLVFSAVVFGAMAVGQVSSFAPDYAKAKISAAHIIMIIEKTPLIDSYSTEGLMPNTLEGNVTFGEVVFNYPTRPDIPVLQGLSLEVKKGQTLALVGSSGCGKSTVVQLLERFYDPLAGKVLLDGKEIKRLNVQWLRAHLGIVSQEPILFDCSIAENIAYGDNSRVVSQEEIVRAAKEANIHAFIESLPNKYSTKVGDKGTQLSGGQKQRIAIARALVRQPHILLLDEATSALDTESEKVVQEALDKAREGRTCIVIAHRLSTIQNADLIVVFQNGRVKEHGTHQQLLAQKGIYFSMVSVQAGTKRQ

[37] = target: T9, ATP-dependent translocase ABCB1; experiment: ABCB1 efflux inhibitor potency, dose response, Jurkat-DNR cells, JC-1, flow cytometry, set 2 (AID 504569); assay type: functional; conditions: read-out: EC50_MICROM_;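 further: potency of pump inhibitors that raise cellular JC-1 green fluorescence up to the nicardipine level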

OCC1OC(n2cnc3cc(Cl)c(Cl)cc32)C(O)C1O (stereo not drawn)
Ki [1]: 0.126 µM (active)
Ki [2]: 2.51 µM (active)
Ki [3]: 2 µM (active)

O=C(CN1C(=O)NC2(CCOc3ccccc32)C1=O)c1ccc(Cl)cc1 (stereo not drawn)
AC50 [4]: 47.9 µM (active)

O=C(Nc1nnc(-c2ccc3c(c2)OCCO3)o1)c1ccc(Cc2ccccc2)cc1
IC50 [5]: 7.92 µM (active)

O=[N+]([O-])c1ccc(-[n+]2nc(-c3ccccc3)nn2-c2ccccc2)cc1
IC50 [6]: 35.9 µM (inactive)
IC50 [7]: 5.48 µM (active)
AC50 [8]: 0.654 µM (active)
EC50 [9]: > 104 µM (inactive)
IC50 [10]: 23.7 µM (active)

CC(Cc1c[nH]c2ccccc12)C(=O)NCc1ccco1 (stereo not drawn)
IC50 [11]: > 66.6 µM (inactive)
IC50 [12]: 12.2 µM (active)
IC50 [13]: 19.4 µM (active)

Clc1ccc(CONc2ncnc3nonc23)c(Cl)c1
EC50 [14]: 19.4 µM (active)
EC50 [15]: > 160 µM (inactive)
EC50 [16]: 22.4 µM (active)
EC50 [17]: 1.26 µM (active)
EC50 [18]: 0.516 µM (active)
EC50 [19]: > 12 µM (not active)
EC50 (H4): 52.6 µM (active)
EC50 [20]: > 180 µM (inactive)
EC50 [21]: 1.14 µM (active)
EC50 [22]: < 0.1 µM (inconclusive)

Clc1ccc(OCc2nn3c(-c4ccco4)nnc3s2)c(Cl)c1
IC50 [23]: 22.8 µM (inactive)

c1ccc2c(-c3cncc4ccccc34)cncc2c1
IC50 (Interleukin-8): 16 µM (inactive)

O=C(O)c1cccc(NC(=S)N/N=C/c2ccccc2OCc2ccc(Br)cc2)c1
IC50 (Beta-lactamase [24]): > 59.6 µM (inactive)
IC50 [25]: 3.73 µM (active)
IC50 (Beta Lactamase [26]): 0.885 µM (active)
IC50 (Beta-lactamase [27]): > 59.6 µM (inactive)
IC50 [28]: 15.4 µM (active)
IC50 (Beta-lactamase [29]): > 59.6 µM (inactive)
IC50 (Leucine aminopeptidase): 13.3 µM (active)
IC50 (Beta Lactamase [30]): 10 µM (inactive)

Cc1no[n+]([O-])c1COc1ccc(/C=C2\NC(=S)NC2=O)cc1
IC50 [31]: 35.9 µM (inactive)
IC50 [32]: 0.578 µM (active)
IC50 (Steroidogenic factor 1): 1.34 µM (active)

CNCc1ccc(-c2[nH]c3cc(F)cc4c3c2CCNC4=O)cc1 [RUCAPARIB]
Ki [33]: > 7.94 µM (inactive)

COC(=O)CSc1nnc(-c2ccc(S(=O)(=O)N3CCCCC3)cc2)o1
IC50 [34]: > 64.6 µM (inactive)
IC50 (Melanocortin receptor 4): > 64.6 µM (inactive)

CCCn1nc(C(=O)Nc2nc(-c3ccccn3)cs2)c2ccccc2c1=O
IC50 (H9c2): > 79 µM (inactive)
AC50 [35]: 81.7 µM (active)

O=C(c1ccco1)N1CCN(c2c3c(nc4cc(-c5cccc(F)c5)nn24)CCCC3)CC1
EC50 [36]: 1.79 µM (active)
EC50 [37]: 4.41 µM (active)
